Reference: patent publication US4513003A, “Process for protecting wood using N-(dichlorofluoromethylthio)-3,6-endomethylene-Δ^4 -tetrahydrophthalimide” (Bayer Aktiengesellschaft, priority 1981, dated 1985)
≈ marks a conversion by molar mass, not a printed value. Where two headings read alike, the source gives them in different places. Each block holds one compound with its values, some of them ahead of it.

Key:
[1] = solubility of substance A compared to substance B; assay type: physicochemical
Protocol: Solubility of substance A compared to substance B (g/l at 20° C.): […]

Paecilomyces varioti = assay: minimum inhibitory concentration against fungi (agar); assay type: cell-based; conditions: 336 h
Protocol: (§1) An agar prepared from beer wort and peptone is mixed with the substance according to the invention at concentrations from 0.5 mg/l to 5,000 mg/l.
(§2) After storage for 2 weeks at 28° C. and 60 to 70% relative atmospheric humidity, the MIC is determined. The MIC is the lowest concentration of active agent with which no growth by the type of microbe used ensues; it is given in the table below.

Pullularia pullulans = assay: as above; assay type: cell-based; conditions: 336 h
Protocol: as §1, §2

Alternaria tenuis = assay: as above; assay type: cell-based; conditions: Alternaria alternata, 336 h
Protocol: as §1, §2

Penicillium citrinum = assay: as above; assay type: cell-based; conditions: 336 h
Protocol: as §1, §2

Trichoderma viride = assay: as above; assay type: cell-based; conditions: 336 h
Protocol: as §1, §2

Coniophora cerebella = assay: as above; assay type: cell-based; conditions: 336 h
Protocol: as §1, §2

Penicillium glaucum = assay: as above; assay type: cell-based; conditions: 336 h
Protocol: as §1, §2

Cladosporium herbarum = assay: as above; assay type: cell-based; conditions: 336 h
Protocol: as §1, §2

Aspergillus niger = assay: as above; assay type: cell-based; conditions: 336 h
Protocol: as §1, §2

Stachybotris atra C. = assay: as above; assay type: cell-based; conditions: 336 h
Protocol: as §1, §2

Escherichia coli = assay: action against bacteria, MIC (bouillon agar); assay type: cell-based; conditions: 336 h
Protocol: An agar, containing bouillon as a nutrient medium, is treated with the active agents A and B (Example 2) given in Table II at concentrations from 1 to 5,000 ppm. The nutrient medium is then inoculated with either Escherichia coli or Staphylococcus aureus and the inoculated medium is maintained for 2 weeks at 28° C. and 60 to 70% relative atmospheric humidity. The MIC is the lowest concentration of active agent with which no growth by the type of microbe used ensues.

[2] = beer wort/peptone agar, 2 weeks at 28° C., 60 to 70% relative humidity, read-out: MIC

SMILES: CN(C)S(=O)(=O)N(SC(F)(Cl)Cl)c1ccccc1 [B]
Solubility ([1]; Ethyl acetate, 20° C.): 117 mg/mL (≈ 351 mM)
Solubility ([1]; Shellsol AB, 20° C.): 60 mg/mL (≈ 180 mM)
Solubility ([1]; Solvesso 100, 20° C.): 75 mg/mL (≈ 225 mM)
Solubility ([1]; Xylene, 20° C.): 65 mg/mL (≈ 195 mM)
MIC (Paecilomyces varioti; Paecilomyces): 20 µg/mL (≈ 0.06 mM)
MIC (Pullularia pullulans): 20 µg/mL (≈ 0.06 mM)
MIC (Alternaria tenuis): 20 µg/mL (≈ 0.06 mM)
MIC (Penicillium citrinum): 150 µg/mL (≈ 0.45 mM)
MIC (Trichoderma viride): 5000 µg/mL (≈ 15 mM)
MIC (Coniophora cerebella): 10 µg/mL (≈ 0.03 mM)
MIC (Penicillium glaucum; Penicillium): 35 µg/mL (≈ 0.105 mM)
MIC (Cladosporium herbarum): 35 µg/mL (≈ 0.105 mM)
MIC (Aspergillus niger): 50 µg/mL (≈ 0.15 mM)
MIC (Stachybotris atra C.): 50 µg/mL (≈ 0.15 mM)
MIC (Escherichia coli): 500 µg/mL (≈ 1.5 mM)

Solubility ([1]; Ethyl acetate, 20° C.): 330 mg/mL (≈ 1110 mM)
Solubility ([1]; Shellsol AB, 20° C.): 140 mg/mL (≈ 473 mM)
Solubility ([1]; Solvesso 100, 20° C.): 200 mg/mL (≈ 675 mM)
Solubility ([1]; Xylene, 20° C.): 250 mg/mL (≈ 844 mM)
solubility properties (in words) ([1]; particularly when compared to substance B): very good solubility properties
MIC (Paecilomyces varioti; Paecilomyces varioti, beer wort/peptone agar, 2 weeks at 28° C., 60 to 70% relative humidity, read-out: MIC): 10 µg/mL (≈ 0.0338 mM)
MIC (Pullularia pullulans; Pullularia pullulans, beer wort/peptone agar, 2 weeks at 28° C., 60 to 70% relative humidity, read-out: MIC): 5 µg/mL (≈ 0.0169 mM)
MIC (Alternaria tenuis; Alternaria tenuis, beer wort/peptone agar, 2 weeks at 28° C., 60 to 70% relative humidity, read-out: MIC): 10 µg/mL (≈ 0.0338 mM)
MIC (Penicillium citrinum; [2]): 7 µg/mL (≈ 0.0236 mM)
MIC (Trichoderma viride; [2]): 200 µg/mL (≈ 0.675 mM)
MIC (Coniophora cerebella; [2]): < 1 µg/mL
MIC (Penicillium glaucum; Penicillium glaucum, beer wort/peptone agar, 2 weeks at 28° C., 60 to 70% relative humidity, read-out: MIC): 10 µg/mL (≈ 0.0338 mM)
MIC (Cladosporium herbarum; [2]): 7 µg/mL (≈ 0.0236 mM)
MIC (Aspergillus niger; [2]): 200 µg/mL (≈ 0.675 mM)
MIC (Stachybotris atra C.; Stachybotris atra C., beer wort/peptone agar, 2 weeks at 28° C., 60 to 70% relative humidity, read-out: MIC): 15 µg/mL (≈ 0.0507 mM)
MIC (Escherichia coli; bouillon agar, 2 weeks at 28° C., 60 to 70% relative humidity, read-out: MIC): 200 µg/mL (≈ 0.675 mM)
SMILES: O=C1C2C3C=CC(C3)C2C(=O)N1SC(F)(Cl)Cl (stereo not shown) [A]
